Measurements reported in US8232407B2, “Nitrogenous heterocyclic compounds with insecticidal activity, and the preparation and use thereof” (East China University of Science and Technology, priority 2008, dated 2012).

Experiments:
Assay type in all cases: in vivo
[1] = tested on: Plutella xylostella; experiment: Insecticidal activities to diamondback moth, feeding dipped leaves
Protocol: (§1) Mortality (%)=(the number of the survival aphis in control group−the number of the survival aphis in the treatment group)/the number of the survival aphis in control group×100%
(4): Insecticidal Activities to Diamondback Moth
Diamondback moth (Plutella xylostella) was tested by the way of feeding dippedleaves. Fresh cabbage leaves were immersed in above mentioned solution for 3 seconds, dried at room temperature, and fed to the tested insects. Each treatment was tested with 10 insects and repeated for 3 tumblers (3 times), while water was used as control. The number of killed insects was counted after 24 hours to calculate the mortality according to the above mentioned formula.

[2] = tested on: Nilaparvata lugens; experiment: Insecticidal activities to plant hopper, spraying method
Procedure, shortened: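 Spray test: acetone solutions of 500 down to 0.79 ppm, 2 ml per tumbler holding 10 planthoppers introduced 6 h earlier, triplicate, aqueous acetone as control. Mortality at 24 h calculated from survivors relative to control.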

[3] = tested on: Pseudaletia separate Walker; experiment: Insecticidal activities to armyworm, leaf dipping and feeding
Protocol: as §1
(3): Insecticidal Activities to Armyworm
Armyworm (Pseudaletia separate Walker) was tested by the way of leaf dipping and feeding. The test compound was exactly formulated with acetone into solutions having concentrations of 500, 250, 100, 50, 25, 12.5, 6.25, 3.13 and 1.57 ppm, respectively. Aqueous acetone solution was used as control. Fresh maize leaves were immersed in the solution for 3 seconds, dried at room temperature, and fed to the tested insects. Each treatment was tested with 10 insects and repeated for 3 tumblers (3 times). The number of killed insects was counted after 24 hours to calculate the mortality according to the above mentioned formula.

[4] = tested on: Aphis craccivoral; experiment: Insecticidal activities to aphids, immersion method
Procedure, shortened: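 Immersion assay: compound diluted from 10 g/L DMF stock to 500 ppm in 0.2 mL/L Triton X-100, sprout-feeding wingless adults dipped 5 s. Kept at 23° C, three repeats; 24 h mortality calculated relative to surviving Triton-treated controls.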

[5] = 500 ppm, leaf dipping and feeding, counted after 24 hours

| SMILES | Plutella xylostella Mortality (%) 500 ppm ([1]; in vivo) [%] | Nilaparvata lugens Mortality (%) 500 ppm ([2]; in vivo) [%] | Pseudaletia separate Walker Mortality (%) 500 ppm ([3]; in vivo) [%] | Aphis craccivoral Mortality (%) 500 ppm ([4]; in vivo) [%] | mortality at 500 ppm ([1]; Plutella xylostella, 500 ppm, feeding dipped leaves, counted after 24 hours, read-out: Plutella xylostella Mortality (%) 500 ppm) [%] | mortality at 500 ppm ([2]; Nilaparvata lugens, 500 ppm, spraying method, counted after 24 hours, read-out: Nilaparvata lugens Mortality (%) 500 ppm) [%] | Pseudaletia separate Walker Mortality (%) 500 ppm [3, 5] [%] | mortality at 500 ppm ([4]; Aphis, 500 ppm, immersion method, read-out: Aphis craccivoral Mortality (%) 500 ppm) [%] | Plutella xylostella Mortality (%) 500 ppm ([1]; 500 ppm, feeding dipped leaves, counted after 24 hours) [%] | Nilaparvata lugens Mortality (%) 500 ppm ([2]; 500 ppm, spraying method, counted after 24 hours) [%] | Aphis craccivoral Mortality (%) 500 ppm ([4]; 500 ppm, immersion method) [%] |
| --- | --- | --- | --- | --- | --- | --- | --- | --- | --- | --- | --- |
| Cc1ccc(C=C(C2=NCCN2Cc2ccc(Cl)nc2)[N+](=O)[O-])o1 [Compound 12] | 100 | 100 | 100 | 100 |  |  |  |  |  |  |  |
| Cc1coc(C=C(C2=NCCN2Cc2ccc(Cl)nc2)[N+](=O)[O-])c1 [Compound 13] | 100 | 100 | 100 | 100 |  |  |  |  |  |  |  |
| CCc1ccc(C=C(C2=NCCN2Cc2ccc(Cl)nc2)[N+](=O)[O-])o1 [Compound 14] | 100 | 100 | 100 | 100 |  |  |  |  |  |  |  |
| O=[N+]([O-])C(=Cc1ccc(CO)o1)C1=NCCN1Cc1ccc(Cl)nc1 [Compound 15] | 100 | 100 | 100 | 100 |  |  |  |  |  |  |  |
| O=[N+]([O-])/C(=C/c1cccs1)C1=NCCN1Cc1ccc(Cl)nc1 [Compound 16, 2-chloro-5-((2-(1-nitro-2-(thiophen-2-yl)vinyl)-4,5-dihydro-imidazol-1-yl)-methyl)pyridine] |  |  |  |  | 100 | 100 | 100 | 100 |  |  |  |
| O=[N+]([O-])C(=Cc1ccsc1)C1=NCCN1Cc1ccc(Cl)nc1 [Compound 17] | 100 | 100 | 100 | 100 |  |  |  |  |  |  |  |
| O=[N+]([O-])C(=Cc1ccc([N+](=O)[O-])s1)C1=NCCN1Cc1ccc(Cl)nc1 [Compound 18] | 100 | 100 | 100 | 100 |  |  |  |  |  |  |  |
| O=[N+]([O-])C(=Cc1ccc(Cl)s1)C1=NCCN1Cc1ccc(Cl)nc1 [Compound 19] | 100 | 100 | 100 | 100 |  |  |  |  |  |  |  |
| O=[N+]([O-])C(=Cc1ccc(Br)s1)C1=NCCN1Cc1ccc(Cl)nc1 [Compound 20] | 100 | 100 | 100 | 100 |  |  |  |  |  |  |  |
| O=[N+]([O-])C(=Cc1cc(Cl)cs1)C1=NCCN1Cc1ccc(Cl)nc1 [Compound 21] | 100 | 100 | 100 | 100 |  |  |  |  |  |  |  |
| O=[N+]([O-])C(=Cc1cc(Br)cs1)C1=NCCN1Cc1ccc(Cl)nc1 [Compound 22] | 100 | 100 | 100 | 100 |  |  |  |  |  |  |  |
| O=[N+]([O-])C(=Cc1cc(Cl)c(Cl)s1)C1=NCCN1Cc1ccc(Cl)nc1 [Compound 23] | 100 | 100 | 100 | 100 |  |  |  |  |  |  |  |
| O=[N+]([O-])C(=Cc1sc(Cl)cc1Cl)C1=NCCN1Cc1ccc(Cl)nc1 [Compound 24] |  |  |  |  |  |  | 100 |  | 100 | 100 | 100 |
| O=[N+]([O-])C(=Cc1cc(Br)c(Br)s1)C1=NCCN1Cc1ccc(Cl)nc1 [Compound 25] | 100 | 100 | 100 | 100 |  |  |  |  |  |  |  |
| O=[N+]([O-])C(=Cc1sc(Br)cc1Br)C1=NCCN1Cc1ccc(Cl)nc1 [Compound 26] | 100 | 100 | 100 | 100 |  |  |  |  |  |  |  |
| Cc1ccc(C=C(C2=NCCN2Cc2ccc(Cl)nc2)[N+](=O)[O-])s1 [Compound 27] | 100 | 100 | 100 | 100 |  |  |  |  |  |  |  |

| SMILES | Plutella xylostella Mortality (%) 500 ppm ([1]; in vivo) [%] | Nilaparvata lugens Mortality (%) 500 ppm ([2]; in vivo) [%] | Pseudaletia separate Walker Mortality (%) 500 ppm ([3]; in vivo) [%] | Aphis craccivoral Mortality (%) 500 ppm ([4]; in vivo) [%] | mortality at 500 ppm ([1]; Plutella xylostella, 500 ppm, feeding dipped leaves, counted after 24 hours, read-out: Plutella xylostella Mortality (%) 500 ppm) [%] | mortality at 500 ppm ([2]; Nilaparvata lugens, 500 ppm, spraying method, counted after 24 hours, read-out: Nilaparvata lugens Mortality (%) 500 ppm) [%] | Pseudaletia separate Walker Mortality (%) 500 ppm [3, 5] [%] | mortality at 500 ppm ([4]; Aphis, 500 ppm, immersion method, read-out: Aphis craccivoral Mortality (%) 500 ppm) [%] | Plutella xylostella Mortality (%) 500 ppm ([1]; 500 ppm, feeding dipped leaves, counted after 24 hours) [%] | Nilaparvata lugens Mortality (%) 500 ppm ([2]; 500 ppm, spraying method, counted after 24 hours) [%] | Aphis craccivoral Mortality (%) 500 ppm ([4]; 500 ppm, immersion method) [%] |
| --- | --- | --- | --- | --- | --- | --- | --- | --- | --- | --- | --- |
| Cc1csc(C=C(C2=NCCN2Cc2ccc(Cl)nc2)[N+](=O)[O-])c1 [Compound 28] | 100 | 100 | 100 | 100 |  |  |  |  |  |  |  |
| CCc1ccc(C=C(C2=NCCN2Cc2ccc(Cl)nc2)[N+](=O)[O-])s1 [Compound 29] | 100 | 100 | 100 | 100 |  |  |  |  |  |  |  |
| O=[N+]([O-])C(=Cc1ccc(CO)s1)C1=NCCN1Cc1ccc(Cl)nc1 [Compound 30] | 100 | 100 | 100 | 100 |  |  |  |  |  |  |  |
| O=[N+]([O-])C(=Cc1ccc[nH]1)C1=NCCN1Cc1ccc(Cl)nc1 [Compound 31] | 100 | 100 | 100 | 100 |  |  |  |  |  |  |  |
| Cn1cccc1C=C(C1=NCCN1Cc1ccc(Cl)nc1)[N+](=O)[O-] [Compound 32] | 100 | 100 | 100 | 100 |  |  |  |  |  |  |  |
| O=[N+]([O-])C(=Cc1cnco1)C1=NCCN1Cc1ccc(Cl)nc1 [Compound 33] | 100 | 100 | 100 | 100 |  |  |  |  |  |  |  |
| O=[N+]([O-])C(=Cc1cncs1)C1=NCCN1Cc1ccc(Cl)nc1 [Compound 34] | 100 | 100 | 100 | 100 |  |  |  |  |  |  |  |
| O=[N+]([O-])C(=Cc1cnc(Cl)s1)C1=NCCN1Cc1ccc(Cl)nc1 [Compound 35] | 100 | 100 | 100 | 100 |  |  |  |  |  |  |  |
| O=[N+]([O-])C(=Cc1cnc[nH]1)C1=NCCN1Cc1ccc(Cl)nc1 [Compound 36] | 100 | 89 | 100 | 98 |  |  |  |  |  |  |  |
| O=[N+]([O-])C(=Cc1ccccn1)C1=NCCN1Cc1ccc(Cl)nc1 [Compound 37] | 50 | 56 | 57 | 34 |  |  |  |  |  |  |  |
| O=[N+]([O-])C(=Cc1cccnc1)C1=NCCN1Cc1ccc(Cl)nc1 [Compound 38] | 87 | 100 | 95 | 97 |  |  |  |  |  |  |  |
| O=[N+]([O-])C(=Cc1ccncc1)C1=NCCN1Cc1ccc(Cl)nc1 [Compound 39] | 21 | 35 | 35 | 24 |  |  |  |  |  |  |  |
| O=[N+]([O-])C(=Cc1ccc(Cl)nc1)C1=NCCN1Cc1ccc(Cl)nc1 [Compound 40] | 56 | 44 | 67 | 45 |  |  |  |  |  |  |  |
| O=[N+]([O-])C(=Cc1ccc(F)nc1)C1=NCCN1Cc1ccc(Cl)nc1 [Compound 41] | 100 | 87 | 100 | 89 |  |  |  |  |  |  |  |
| Cc1ccc(C=C(C2=NCCN2Cc2ccc(Cl)nc2)[N+](=O)[O-])cn1 [Compound 42] | 90. | 36 | 87 | 45 |  |  |  |  |  |  |  |
| O=[N+]([O-])C(=Cc1cc2ccccc2[nH]1)C1=NCCN1Cc1ccc(Cl)nc1 [Compound 43] | 100 | 90 | 95 | 76 |  |  |  |  |  |  |  |
